In one assay the target is T1, MLCK (Homo sapiens, UniProt Q9H1R3).
T1 construct: purchased Invitrogen (SelectScreen platform)
Nature of the assay: Kinase EC50 (10 pt curve or estimate, ATP Kmapp). Format: biochemical. To be noted: from 10 pt curve or estimate based on 1 μm inhibition assay at ATP Kmapp.

The subject of assay [1] is MV4-11 (leukemia) cell line. Nature of the assay: sulforhodamine B (SRB) cytotoxicity assay. The format is cell-based. To be noted: Homo sapiens. Here is the method:
The cytotoxic activity of compounds listed in Table 5 was determined with a sulforhodamine B (SRB) assay on panel of cell lines, including MdaMb231 (breast cancer), MV4-11 (leukemia), PC-3 (prostate cancer), U266B1 (multiple myeloma), C7 macrophages, and Raw264.7 (murine macrophage-like cells).
Cells growing in relevant media were seeded in a 96 well plate and left to adhere overnight. Cells were plated at appropriate cell densities: • MV4-11: 20.000 cells/well • Mda-Mb231: 6000 cells/well • C7: 10.000 cells/well • Raw264.7: 2000 cells/well • PC-3: 6000 cells/well • U266B1: 40.000 cells/well.
After a 3 day incubation period (6 days for C7 and Raw264.7) cells were fixed with trichloroacetic acid (TCA) to end concentration of 10% for adherent cells and 16% end concentration for suspension cells for 1 hr at 4° C. before washing. Cells were stained with 0.4% sulforhodamine-B dye (SRB) in 1% acetic acid for 30 minutes and washed in 1% acetic acid. To solubilize the dye 100 μl 10 mM Tris, pH 10.5 was added and the absorbance was read at 564 nm. IC50 values were generated using the SoftMAX Pro™ software. The data is presented below in Tables 6 through 11.

For the next assay, the target named is T2, FLT3 D835Y (Homo sapiens, UniProt P36888, D835Y).
T2 construct: purchased Invitrogen (SelectScreen platform)
T2 sequence (P36888 27-993 D835Y): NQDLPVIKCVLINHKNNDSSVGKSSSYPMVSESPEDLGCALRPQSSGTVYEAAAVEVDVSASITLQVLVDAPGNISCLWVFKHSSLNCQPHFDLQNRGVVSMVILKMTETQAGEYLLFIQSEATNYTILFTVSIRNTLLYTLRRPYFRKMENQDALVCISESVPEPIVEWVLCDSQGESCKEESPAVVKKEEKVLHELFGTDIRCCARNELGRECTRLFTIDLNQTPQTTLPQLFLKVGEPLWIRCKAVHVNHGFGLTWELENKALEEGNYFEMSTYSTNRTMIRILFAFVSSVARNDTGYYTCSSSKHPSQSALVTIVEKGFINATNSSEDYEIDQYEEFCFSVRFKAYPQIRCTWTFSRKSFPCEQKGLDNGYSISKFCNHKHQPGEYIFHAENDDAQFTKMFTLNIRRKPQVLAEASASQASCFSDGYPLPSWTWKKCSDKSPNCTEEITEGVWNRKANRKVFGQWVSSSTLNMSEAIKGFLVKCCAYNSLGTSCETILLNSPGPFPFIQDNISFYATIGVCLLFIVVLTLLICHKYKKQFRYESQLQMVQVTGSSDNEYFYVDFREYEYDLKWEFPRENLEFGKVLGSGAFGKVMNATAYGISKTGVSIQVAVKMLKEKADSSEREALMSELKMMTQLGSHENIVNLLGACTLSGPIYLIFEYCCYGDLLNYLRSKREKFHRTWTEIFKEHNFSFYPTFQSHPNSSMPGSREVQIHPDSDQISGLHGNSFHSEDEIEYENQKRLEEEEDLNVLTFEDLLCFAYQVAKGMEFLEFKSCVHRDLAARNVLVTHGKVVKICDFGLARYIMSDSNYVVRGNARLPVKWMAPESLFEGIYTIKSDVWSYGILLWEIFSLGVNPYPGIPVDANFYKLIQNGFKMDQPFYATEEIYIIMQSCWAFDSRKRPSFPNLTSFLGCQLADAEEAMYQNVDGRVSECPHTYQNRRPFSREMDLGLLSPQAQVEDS
Nature of the assay: Kinase EC50 (10 pt curve or estimate, ATP Kmapp). Format: biochemical. To be noted: from 10 pt curve or estimate based on 1 μm inhibition assay at ATP Kmapp.

A further assay deals with T3, FLT3 (Homo sapiens, UniProt P36888).
T3 construct: purchased Invitrogen (SelectScreen platform)
T3 sequence (P36888 27-993): T2 sequence (P36888 27-993 D835Y) with Y809D
Nature of the assay: Kinase EC50 (10 pt curve or estimate, ATP Kmapp). Format: biochemical. To be noted: from 10 pt curve or estimate based on 1 μm inhibition assay at ATP Kmapp.

Where [2] appears, read: MV4-11, 72 h, 100 μM highest concentration, diluted 1:5, 3 day incubation, read-out: IC50 Measured Against MV4-11 Cell Line.
Setting [3] is: MV4-11, Table 5 summary, read-out: IC50 SRB assay MV4-11.
Setting [4] is: MV4-11, 72 h, 50 μM highest concentration, diluted 1:4, 3 day incubation, read-out: IC50 Measured Against MV4-11 Cell Line.

Changes are numbered by the printed parent chain. pEC50, pIC50: −log10 of the molar value. Like-named read-outs stand apart in the source and are kept apart here.

Consider `O=c1c2c(NCCCN3CCOCC3)ccc3ncn(c4ccc5[nH]ncc5c14)c32` [(X)], for which the values for the pEC50 at MLCK, on FLT3 D835Y and on FLT3 were 7.28, 7.96 and 7.96, respectively. Besides, the pIC50 in assay [1] (setting [2]) and in assay [1] (setting [3]) was 8.70 throughout.

Regarding `CN(C)CCNc1ccc2ncn3c4ccc5[nH]ncc5c4c(=O)c1c23` [(XII)], the pEC50 at MLCK was 7.74; at FLT3 D835Y it was 8.52; at FLT3, 8.30. Besides, the pIC50 in assay [1] (setting [2]) and in assay [1] (setting [3]) was more than 9.00 in each case.

Turning to `CC(CCN1CCOCC1)Nc1ccc2ncn3c4ccc5[nH]ncc5c4c(=O)c1c23` (stereo not drawn) [(XVI)], the pEC50 is 7.28 at MLCK, 8.10 at FLT3 D835Y and 8.05 at FLT3. Also, the pIC50 in assay [1] (setting [2]) and in assay [1] (setting [3]) was 6.92 each time.

Take `CN1CCN(CCCNc2ccc3ncn4c5ccc6[nH]ncc6c5c(=O)c2c34)CC1` [(XVII)]: the pEC50 on MLCK is 8.05; at FLT3 D835Y it was 8.30; on FLT3, 7.82. Besides, the pIC50 in assay [1] (setting [4]) and in assay [1] (setting [3]) was 7.09 each time.

Consider `CN(C)CCCNc1ccc2ncn3c4ccc5[nH]ncc5c4c(=O)c1c23` [Compound (IV)], for which the results for the pEC50 at MLCK, at FLT3 D835Y and on FLT3 were 7.68, 7.92 and 7.85, respectively. The pIC50 in assay [1] (setting [2]) and in assay [1] (setting [3]) was more than 9.00 in each case.

Regarding `CCN(CC)CCCNc1ccc2ncn3c4ccc5[nH]ncc5c4c(=O)c1c23` [Compound (XV)], the values for the pEC50 at MLCK, on FLT3 D835Y and at FLT3 were 8.10, 8.40 and 7.96, respectively. The pIC50 in assay [1] (setting [4]) and in assay [1] (setting [3]) was more than 9.00 each time.

As for `CCN(CC)CCNc1ccc2ncn3c4ccc(O)cc4c(=O)c1c23` [Symadex, 5-(2-(diethylamino)ethylamino)-8-hydroxy-6H-imidazo[4,5,1-de]acridin-6-one, reference compound], the pEC50 is 7.02 on MLCK, 7.62 on FLT3 D835Y and 7.40 at FLT3. For the same compound, the pIC50 in assay [1] (setting [4]) was 7.55; in assay [1] (setting [2]) it was 7.92; in assay [1] (setting [3]), 7.92.
